Reference: US20250188040A1, “PHARMACEUTICAL COMPOSITIONS COMPRISING WRN HELICASE INHIBITORS” (Vividion Therapeutics, Inc., priority 2022, published 2025)
Where two headings read alike, the source gives them in different places.

Legend:
[1] = molecular target: hWRN(519-1227)_C-H3CV-GFP-10His (Homo sapiens, UniProt Q14191); test: Helicase Assay for WRN Inhibition (ATP-dependent, fluorescence based)
[2] = system: HCT 116 cells; test: Cell growth assay (CellTiter-Glo 2.0), HCT 116 MSI-H cell line; conditions: Homo sapiens, HCT-116, 120 h, read-out: Cell Growth Inhibition GI50 HCT-116
[3] = system: SW480 cells; test: Cell growth assay (CellTiter-Glo 2.0), SW480 MSS cell line; conditions: Homo sapiens, SW480, 120 h, read-out: Cell Growth Inhibition GI50 SW480
[4] = molecular target: T1, WRN C727 (Homo sapiens, UniProt Q14191); test: Target engagement, in vitro (lysate), OCI-AML2; assay type: binding; conditions: read-out: OCI-AML2 WRN C727 TE50 in vitro (lysate)
T1 construct: endogenous in cells; host or cells: OCI-AML2
How it was run: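 OCI-AML2 intact cells or lysates dosed with compound, then a cysteine-reactive probe; after trypsin digestion, probe-labelled peptides were streptavidin-enriched and quantified by nano-LC parallel reaction monitoring MS. Engagement (%) relative to DMSO controls.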

[5] = WRN Helicase IC50, 30 min preincubation with ATP, 30 min reaction

Chain of hWRN(519-1227)_C-H3CV-GFP-10His (Q14191 519-1227): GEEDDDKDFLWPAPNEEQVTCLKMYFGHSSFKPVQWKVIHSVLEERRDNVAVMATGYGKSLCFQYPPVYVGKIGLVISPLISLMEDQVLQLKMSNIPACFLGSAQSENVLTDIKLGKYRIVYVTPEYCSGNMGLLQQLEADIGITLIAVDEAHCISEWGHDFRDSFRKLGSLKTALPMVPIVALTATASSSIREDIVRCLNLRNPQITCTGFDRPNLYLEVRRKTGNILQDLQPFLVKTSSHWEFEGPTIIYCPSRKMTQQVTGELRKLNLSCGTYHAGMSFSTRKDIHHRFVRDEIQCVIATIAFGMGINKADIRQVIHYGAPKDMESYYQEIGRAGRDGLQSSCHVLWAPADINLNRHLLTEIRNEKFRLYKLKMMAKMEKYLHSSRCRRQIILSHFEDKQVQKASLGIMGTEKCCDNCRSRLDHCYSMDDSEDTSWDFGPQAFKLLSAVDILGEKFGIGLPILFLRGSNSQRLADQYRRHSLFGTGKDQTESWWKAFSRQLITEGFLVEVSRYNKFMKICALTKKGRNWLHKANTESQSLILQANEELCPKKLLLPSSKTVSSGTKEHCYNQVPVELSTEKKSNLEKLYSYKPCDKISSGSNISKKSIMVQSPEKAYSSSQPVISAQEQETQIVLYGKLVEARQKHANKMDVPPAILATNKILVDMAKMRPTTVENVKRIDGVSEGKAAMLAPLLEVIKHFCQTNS
T1 sequence (Q14191 whole entry): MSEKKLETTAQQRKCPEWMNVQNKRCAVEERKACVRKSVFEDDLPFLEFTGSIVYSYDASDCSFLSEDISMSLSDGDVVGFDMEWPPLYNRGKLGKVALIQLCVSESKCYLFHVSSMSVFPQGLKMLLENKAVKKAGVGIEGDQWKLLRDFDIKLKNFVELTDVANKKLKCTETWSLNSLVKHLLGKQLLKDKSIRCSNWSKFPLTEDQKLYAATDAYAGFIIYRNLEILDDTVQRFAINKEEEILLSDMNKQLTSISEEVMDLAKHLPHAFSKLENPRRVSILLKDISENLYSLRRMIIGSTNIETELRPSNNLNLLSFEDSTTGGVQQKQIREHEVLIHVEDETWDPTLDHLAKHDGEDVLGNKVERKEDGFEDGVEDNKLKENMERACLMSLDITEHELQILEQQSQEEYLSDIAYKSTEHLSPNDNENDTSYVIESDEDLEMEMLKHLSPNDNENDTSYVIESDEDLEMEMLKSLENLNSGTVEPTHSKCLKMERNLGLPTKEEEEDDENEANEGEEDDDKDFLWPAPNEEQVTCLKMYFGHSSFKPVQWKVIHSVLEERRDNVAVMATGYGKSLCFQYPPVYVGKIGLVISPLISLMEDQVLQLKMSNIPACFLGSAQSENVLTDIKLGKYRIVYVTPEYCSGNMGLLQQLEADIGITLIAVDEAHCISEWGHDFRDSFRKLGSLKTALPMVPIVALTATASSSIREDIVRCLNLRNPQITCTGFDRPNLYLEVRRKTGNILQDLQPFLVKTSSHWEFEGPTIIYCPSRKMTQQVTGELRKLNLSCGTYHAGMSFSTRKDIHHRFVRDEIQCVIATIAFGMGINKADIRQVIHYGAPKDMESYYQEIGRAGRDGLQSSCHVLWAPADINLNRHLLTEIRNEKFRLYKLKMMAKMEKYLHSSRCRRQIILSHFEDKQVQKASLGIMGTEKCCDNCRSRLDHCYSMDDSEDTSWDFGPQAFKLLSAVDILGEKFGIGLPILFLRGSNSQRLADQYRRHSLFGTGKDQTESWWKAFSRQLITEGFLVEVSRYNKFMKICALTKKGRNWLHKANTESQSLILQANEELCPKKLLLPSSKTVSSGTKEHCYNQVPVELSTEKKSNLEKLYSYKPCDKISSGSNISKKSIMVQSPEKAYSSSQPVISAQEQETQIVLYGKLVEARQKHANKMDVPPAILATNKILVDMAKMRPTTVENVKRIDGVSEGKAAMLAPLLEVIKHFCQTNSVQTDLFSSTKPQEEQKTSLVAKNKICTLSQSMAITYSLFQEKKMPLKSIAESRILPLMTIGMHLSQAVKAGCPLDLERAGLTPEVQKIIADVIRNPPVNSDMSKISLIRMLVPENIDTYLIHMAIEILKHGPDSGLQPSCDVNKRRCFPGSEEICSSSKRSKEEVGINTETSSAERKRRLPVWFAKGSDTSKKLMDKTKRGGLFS

IC50 [1, 5]	GI50 [2]	GI50 [3]	IC50 [4]	IC50 [1]	SMILES
0.2 µM	0.0195 µM	3.3 µM	0.42 µM		CC(C)N(C)c1ncc(C(=O)N[C@H](/C=C/S(C)(=O)=O)C2CC2)c(Oc2ccccc2)n1 [Example 186, (S,E)-N-(1-cyclopropyl-3-(methylsulfonyl)allyl)-2-(isopropyl(methyl)amino)-4-phenoxypyrimidine-5-carboxamide]
	0.53 µM	5.4 µM	0.69 µM	0.31 µM	CC(=O)C=C1CN(C(=O)c2cnc(C(C)(C)C)nc2Oc2ccccc2)C1 [Example 190, 1-(1-(2-(tert-butyl)-4-phenoxypyrimidine-5-carbonyl)azetidin-3-ylidene)propan-2-one]
	0.26 µM	7.4 µM	2.19 µM	0.91 µM	COC(=O)C=C1CN(C(=O)c2cnc(C(C)(C)C)nc2Oc2ccccc2)C1 [Example 191, methyl 2-(1-(2-(tert-butyl)-4-phenoxypyrimidine-5-carbonyl)azetidin-3-ylidene)acetate]
1.69 µM	0.709 µM	6.19 µM	6.24 µM		C[C@@H](/C=C/S(C)(=O)=O)NC(=O)c1cnc(C2CCCC2)nc1OC1CCCC1 [Example 197, (S,E)-2-cyclopentyl-4-(cyclopentyloxy)-N-(4-(methylsulfonyl)but-3-en-2-yl)pyrimidine-5-carboxamide]
4.5 µM	3.6 µM	> 10 µM	21.7 µM		C[C@@H](/C=C/S(C)(=O)=O)NC(=O)c1cnc(C2=CCCC2)cc1Oc1ccccc1 [Example 200, (S,E)-6-(cyclopent-1-en-1-yl)-N-(4-(methylsulfonyl)but-3-en-2-yl)-4-phenoxynicotinamide]
8.6 µM	7.2 µM	> 10 µM	75 µM		C[C@@H](/C=C/S(C)(=O)=O)NC(=O)c1ccc(C2=CCCC2)nc1Oc1ccccc1 [Example 202, (S,E)-6-(cyclopent-1-en-1-yl)-N-(4-(methylsulfonyl)but-3-en-2-yl)-2-phenoxynicotinamide]
11 µM	2.16 µM	12.7 µM	> 100 µM		CC(C)=Cc1ncc(C(=O)N[C@@H](C)/C=C/S(C)(=O)=O)c(Oc2ccccc2)n1 [Example 213, (S,E)-2-(2-methylprop-1-en-1-yl)-N-(4-(methylsulfonyl)but-3-en-2-yl)-4-phenoxypyrimidine-5-carboxamide]
10 µM	2.47 µM	> 19.5 µM	> 100 µM		CC(C)Cc1ncc(C(=O)N[C@@H](C)/C=C/S(C)(=O)=O)c(Oc2ccccc2)n1 [Example 214, (S,E)-2-isobutyl-N-(4-(methylsulfonyl)but-3-en-2-yl)-4-phenoxypyrimidine-5-carboxamide]
7.74 µM	2.2 µM	> 10 µM	13.8 µM		C[C@@H](/C=C/S(C)(=O)=O)NC(=O)c1cnc(C2(O)CCCC2)nc1Oc1ccccc1 [Example 216, (S,E)-2-(1-hydroxycyclopentyl)-N-(4-(methylsulfonyl)but-3-en-2-yl)-4-phenoxypyrimidine-5-carboxamide]
4.3 µM	1.38 µM	> 29.3 µM	17.1 µM		C[C@@H](/C=C/S(C)(=O)=O)NC(=O)c1cnc(C(C)(C)O)nc1Oc1ccccc1 [Example 218, (S,E)-2-(2-hydroxypropan-2-yl)-N-(4-(methylsulfonyl)but-3-en-2-yl)-4-phenoxypyrimidine-5-carboxamide]
8.3 µM	2 µM	52 µM	20 µM		COC(C)(C)c1ncc(C(=O)N[C@@H](C)/C=C/S(C)(=O)=O)c(Oc2ccccc2)n1 [Example 221, (S,E)-2-(2-methoxypropan-2-yl)-N-(4-(methylsulfonyl)but-3-en-2-yl)-4-phenoxypyrimidine-5-carboxamide]
0.444 µM	0.133 µM	> 15 µM	1.3 µM		C[C@@H](/C=C/S(C)(=O)=O)NC(=O)c1cnc(C23CC(C2)C3)nc1Oc1ccccc1 [Example 222, (S,E)-2-(bicyclo[1.1.1]pentan-1-yl)-N-(4-(methylsulfonyl)but-3-en-2-yl)-4-phenoxypyrimidine-5-carboxamide]
0.18 µM	0.0539 µM	19 µM	0.23 µM		C[C@@H](/C=C/S(C)(=O)=O)NC(=O)c1cnc(C(F)(F)C2CC2)nc1Oc1ccccc1 [Example 223, (S,E)-2-(cyclopropyldifluoromethyl)-N-(4-(methylsulfonyl)but-3-en-2-yl)-4-phenoxypyrimidine-5-carboxamide]
0.11 µM	0.0166 µM	14 µM	0.81 µM		CCC(F)(F)c1ncc(C(=O)N[C@H](/C=C/S(C)(=O)=O)C2CC2)c(Oc2ccccc2)n1 [Example 230, (S,E)-N-(1-cyclopropyl-3-(methylsulfonyl)allyl)-2-(1,1-difluoropropyl)-4-phenoxypyrimidine-5-carboxamide]
0.21 µM	0.038 µM	61 µM	0.42 µM		CC(F)(F)c1cc(Oc2ccccc2)c(C(=O)N[C@H](/C=C/S(C)(=O)=O)C2CC2)cn1 [Example 231, (S,E)-N-(1-cyclopropyl-3-(methylsulfonyl)allyl)-6-(1,1-difluoroethyl)-4-phenoxynicotinamide]
0.3 µM	0.0699 µM	28.1 µM	2.36 µM		C[C@@H](/C=C/S(C)(=O)=O)NC(=O)c1ccc(C(C)(F)F)nc1Oc1ccccc1 [Example 232, (S,E)-6-(1,1-difluoroethyl)-N-(4-(methylsulfonyl)but-3-en-2-yl)-2-phenoxynicotinamide]
0.072 µM	0.0199 µM	17 µM	0.48 µM		CC(F)(F)c1ccc(C(=O)N[C@H](/C=C/S(C)(=O)=O)C2CC2)c(Oc2ccccc2)n1 [Example 233, (S,E)-N-(1-cyclopropyl-3-(methylsulfonyl)allyl)-6-(1,1-difluoroethyl)-2-phenoxynicotinamide]
0.0893 µM	0.0394 µM	8.3 µM	70 µM		CC(F)(F)c1nc(Oc2ccccc2)c(C(=O)N[C@H](/C=C/S(C)(=O)=O)C2CC2)cc1F [Example 235, (S,E)-N-(1-cyclopropyl-3-(methylsulfonyl)allyl)-6-(1,1-difluoroethyl)-5-fluoro-2-phenoxynicotinamide]
	6.5 µM	> 10 µM	30 µM	8.5 µM	C[C@@H](/C=C/S(C)(=O)=O)NC(=O)c1cc2c(cc1Oc1ccccc1)CCC2=O [Example 247, (S,E)-N-(4-(methylsulfonyl)but-3-en-2-yl)-3-oxo-6-phenoxy-2,3-dihydro-1H-indene-5-carboxamide]
4.5 µM	1.14 µM	44.9 µM	0.62 µM		Cn1ccc2cc(C(=O)N[C@H](/C=C/S(C)(=O)=O)C3CC3)c(Oc3ccccc3)nc21 [Example 250, (S,E)-N-(1-cyclopropyl-3-(methylsulfonyl)allyl)-1-methyl-6-phenoxy-1H-pyrrolo[2,3-b]pyridine-5-carboxamide]
12 µM	2.1 µM	> 30 µM	0.35 µM		Cn1ncc2cc(C(=O)N[C@H](/C=C/S(C)(=O)=O)C3CC3)c(Oc3ccccc3)nc21 [Example 252, (S,E)-N-(1-cyclopropyl-3-(methylsulfonyl)allyl)-1-methyl-6-phenoxy-1H-pyrazolo[3,4-b]pyridine-5-carboxamide]
1.14 µM	0.329 µM	> 12.7 µM	3.77 µM		C[C@@H](/C=C/S(C)(=O)=O)NC(=O)c1c(N)nc(C2CCCC2)nc1Oc1ccccc1 [Example 255, (S,E)-4-amino-2-cyclopentyl-N-(4-(methylsulfonyl)but-3-en-2-yl)-6-phenoxypyrimidine-5-carboxamide]
8.2 µM	1.8 µM	41 µM	> 100 µM		C[C@@H](/C=C/S(C)(=O)=O)NC(=O)c1cnc(CC(F)(F)F)nc1Oc1ccccc1 [Example 260, (S,E)-N-(4-(methylsulfonyl)but-3-en-2-yl)-4-phenoxy-2-(2,2,2-trifluoroethyl)pyrimidine-5-carboxamide]
0.88 µM	0.35 µM	38 µM	1.79 µM		CS(=O)(=O)/C=C/[C@@H](NC(=O)c1cnc(CC(F)(F)F)nc1Oc1ccccc1)C1CC1 [Example 261, (S,E)-N-(1-cyclopropyl-3-(methylsulfonyl)allyl)-4-phenoxy-2-(2,2,2-trifluoroethyl)pyrimidine-5-carboxamide]
1.7 µM	2.1 µM	14 µM	23.3 µM		C=C(C#N)CNC(=O)c1cnc(C2CCCC2)nc1Oc1ccccc1 [Example 268, N-(2-cyanoallyl)-2-cyclopentyl-4-phenoxypyrimidine-5-carboxamide]
	3.3 µM	17.9 µM	25 µM	6.1 µM	C=C(C#N)CNC(=O)c1cnc(C2CC2)nc1Oc1ccccc1 [Example 269, N-(2-cyanoallyl)-2-cyclopropyl-4-phenoxypyrimidine-5-carboxamide]
0.91 µM	0.51 µM	11 µM	8.53 µM		C=C(C#N)CNC(=O)c1cnc(C(C)(C)C)nc1Oc1ccccc1 [Example 270, 2-(tert-butyl)-N-(2-cyanoallyl)-4-phenoxypyrimidine-5-carboxamide]
